Results taken from US10106510B2, “Substituted isoxazoles for treating cancer” (EPIZYME, INC., priority 2014, dated 2018).
pIC50: −log10 of the molar value.

target: SMYD3 (Homo sapiens (Human), UniProt Q9H7B4); experiment: SMYD3 biochemical assay (SMYD3 enzyme assay on MEKK2 protein substrate, scintillation proximity assay); settings: 3H-SAM, SPA, IC50 values are an average of n = 1 to n = 50, read-out: SMYD3 Biochem IC50
Text: S-adenosylmethionine (SAM), S-adenosylhomocysteine (SAH), Tris, Tween20, dimethylsulfoxide (DMSO), bovine skin gelatin (BSG), and Tris(2-carboxyethyl)phosphine hydrochloride solution (TCEP) were purchased from Sigma-Aldrich at the highest level of purity possible. ^3H-SAM was purchase from American Radiolabeled Chemicals with a specific activity of 80 Ci/mmol. 384-well opaque white OptiPlates and SPA beads (Perkin Elmer, catalog # RPNQ0013) were purchased from PerkinElmer.
N-terminally GST-tagged MEKK2 (MAP3K2) protein corresponding to reference sequence AAF63496.3 was purchased from Life Technologies (catalog # PV4010). […] Protein identity was confirmed by MS/MS analysis after proteolytic digestion. The protein sequence used was:
Full-length human SMYD3 isoform 1 (BAB86333) was inserted into a modified pET21b plasmid containing a His6 tag and TEV and SUMO cleavage sites. Because two common variants of SMYD3 exist in the population, site directed mutagenesis was subsequently performed to change amino acid 13 from an asparagine to a lysine, resulting in plasmid pEPZ533.
E. coli (BL21 codonplus RIL strain, Stratagene) were transformed with plasmid pEPZ553 by mixing competent cells and plasmid DNA and incubating on ice for 30minutes followed by heat shock at 42° C. for 1 minute and cooling on ice for 2 minutes. Transformed cells were grown and selected on LB agar with 100 μg/mL ampicillin and 17 μg/mL chloramphenicol at 37° C. overnight. A single clone was used to inoculate 200 mL of LB medium with 100 μg/mL ampicillin and 17 μg/mL chloramphenicol and incubated at 37° C. on an orbital shaker at 180 rpm. Once in log growth, the culture was diluted 1:100 into 2 L of LB medium and grown until OD600 was about 0.3 after which the culture was incubated at 15° C. and 160 rpm. Once OD600 reached about 0.4, IPTG was added to a final concentration of 0.1 mM and the cells were grown overnight at 15° C. and 160 rpm. Cells were harvested by centrifugation at 8000 rpm, for 4 minutes at 4° C. and stored at −80° C. for purification.
The column was washed with Buffer B (Buffer A plus 20 mM imidazole) and His-tagged SMYD3 was eluted with Buffer C (Buffer A plus 300 mM imidazole). The His tag, TEV and SUMO cleavage sites were removed generating native SMYD3 by addition of ULP1 protein at a ratio of 1:200 (ULP1:SMYD3). Imidazole was removed by dialysis overnight in Buffer A. The dialyzed solution was applied to a second Nickel column and the native SMYD3 protein was collected from the column flow-through. The flow-through was dialyzed in Buffer D (25 mM Tris, 5% glycerol, 5 mM β-mercaptoethanol, 50 mM NaCl, pH7.8) and ULP1 was removed using a Q sepharose fast flow column.
General Procedure for SMYD3 Enzyme Assays on MEKK2 Protein Substrate
The assays were all performed in a buffer consisting of 25 mM Tris-Cl pH 8.0, 1 mM TCEP, 0.005% BSG, and 0.005% Tween 20, prepared on the day of use. Compounds in 100% DMSO (1 ul) were spotted into a 384-well white opaque OptiPlate using a Bravo automated liquid handling platform outfitted with a 384-channel head (Agilent Technologies). DMSO (1 ul) was added to Columns 11, 12, 23, 24, rows A-H for the maximum signal control and 1 ul of SAH, a known product and inhibitor of SMYD3, was added to columns 11, 12, 23, 24, rows I-P for the minimum signal control. A cocktail (40 ul) containing the SMYD3 enzyme was added by Multidrop Combi (Thermo-Fisher). The compounds were allowed to incubate with SMYD3 for 30 min at room temperature, then a cocktail (10 ul) containing SAM and MEKK2 was added to initiate the reaction (final volume=51 ul).

SMYD3, sequence (Q9H7B4 whole entry): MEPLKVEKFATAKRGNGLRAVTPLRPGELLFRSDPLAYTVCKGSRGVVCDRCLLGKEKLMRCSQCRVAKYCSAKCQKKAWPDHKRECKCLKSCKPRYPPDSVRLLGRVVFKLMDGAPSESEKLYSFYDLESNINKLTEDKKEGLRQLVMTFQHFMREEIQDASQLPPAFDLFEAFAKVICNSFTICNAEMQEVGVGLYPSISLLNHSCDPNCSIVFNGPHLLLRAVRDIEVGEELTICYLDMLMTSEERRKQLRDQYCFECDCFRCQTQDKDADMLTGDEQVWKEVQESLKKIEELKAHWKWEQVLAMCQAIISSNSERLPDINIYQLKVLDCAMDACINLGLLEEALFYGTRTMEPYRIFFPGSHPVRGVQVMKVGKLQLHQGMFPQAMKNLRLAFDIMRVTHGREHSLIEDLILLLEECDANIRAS

CC(C)CN(C(=O)c1cc(C2CC2)on1)[C@H]1CC[C@H](NC(=O)C[C@@H](C)N)CC1 [compound 47, N-((1R,4r)-4-((R)-3-aminobutanamido)cyclohexyl)-5-cyclopropyl-N-isobutylisoxazole-3-carboxamide] and CC(C)CN(C(=O)c1cc(C2CC2)on1)[C@H]1CC[C@H](NC(=O)C[C@H](C)N)CC1 [compound 48, N-((1S,4r)-4-((S)-3-aminobutanamido)cyclohexyl)-5-cyclopropyl-N-isobutylisoxazole-3-carboxamide] are within 0.2 log units of each other in pIC50: 5.51 for the first, 5.42 for the second.

Going from O=C(CCN1CCOCC1)N[C@H]1CC[C@H](NC(=O)c2cc(C3CC3)on2)CC1 [compound 15, 5-cyclopropyl-N-((1r,4r)-4-(3-morpholino-propanamido)cyclohexyl) isoxazole-3-carboxamide] to O=C(CCN1CCNCC1)N[C@H]1CC[C@H](NC(=O)c2cc(C3CC3)on2)CC1 [compound 17, 5-cyclopropyl-N-((1r,4r)-4-(3-(piperazin-1-yl)propanamido)cyclohexyl)isoxazole-3-carboxamide], the pIC50 rises from 4.69 to 5.94 (1.25 log units). The second is the more potent here.

C[C@H](N)CC(=O)N[C@H]1CC[C@H](N(C)C(=O)c2cc(C3CC3)on2)CC1 [compound 58, N-((1S,4r)-4-((S)-3-aminobutanamido)cyclohexyl)-5-cyclopropyl-N-methylisoxazole-3-carboxamide] and C[C@@H](N)CC(=O)N[C@H]1CC[C@H](N(C)C(=O)c2cc(C3CC3)on2)CC1 [compound 56, N-((1R,4r)-4-((R)-3-aminobutanamido)cyclohexyl)-5-cyclopropyl-N-methylisoxazole-3-carboxamide] are within 0.2 log units of each other in pIC50: 5.21 for the first, 5.03 for the second.

First: CCc1cc(C(=O)N[C@H]2CC[C@H](N)C[C@H]2CC)no1 [compound 2, N-((1S,2R,4S)-4-amino-2-ethylcyclohexyl)-5-ethylisoxazole-3-carboxamide]
Second: NCCN[C@H]1CC[C@H](NC(=O)c2cc(C3CC3)on2)CC1 [compound 28, N-((1r,4r)-4-((2-aminoethyl)amino)cyclohexyl)-5-cyclopropylisoxazole-3-carboxamide]
The pIC50 of the first is 0.46 log units lower: 5.61 for the first, 6.07 for the second.

C[C@@H](N)CC(=O)N[C@H]1CC[C@H](N(CCO)C(=O)c2cc(C3CC3)on2)CC1 [compound 50, N-((1R,4r)-4-((R)-3-aminobutanamido)cyclohexyl)-5-cyclopropyl-N-(2-hydroxyethyl)isoxazole-3-carboxamide] and C[C@H](N)CC(=O)N[C@H]1CC[C@H](N(CCO)C(=O)c2cc(C3CC3)on2)CC1 [compound 51, N-((1S,4r)-4-((S)-3-aminobutanamido)cyclohexyl)-5-cyclopropyl-N-(2-hydroxyethyl)isoxazole-3-carboxamide] are within 0.2 log units of each other in pIC50: 4.84 for the first, 4.86 for the second.

Going from NCCCN(C(=O)CCO)[C@H]1CC[C@H](NC(=O)c2cc(C3CC3)on2)CC1 [compound 36, N-((1r,4r)-4-(N-(3-aminopropyl)-3-hydroxypropanamido)cyclohexyl)-5-cyclopropylisoxazole-3-carboxamide] to NCCC(=O)N(CCO)[C@H]1CC[C@H](NC(=O)c2cc(C3CC3)on2)CC1 [compound 9, N-((1r,4r)-4-(3-amino-N-(2-hydroxyethyl)propanamido)cyclohexyl)-5-cyclo-propylisoxazole-3-carboxamide], the pIC50 rises from 5.15 to 5.64 (0.49 log units).

Going from COCCN(C(=O)c1cc(C2CC2)on1)[C@H]1CC[C@H](NC(=O)C[C@H](C)N)CC1 [compound 49, N-((1S,4r)-4-((S)-3-aminobutanamido)cyclohexyl)-5-cyclopropyl-N-(2-methoxyethyl)isoxazole-3-carboxamide] to COCCN(C(=O)c1cc(C2CC2)on1)[C@H]1CC[C@H](NC(=O)C[C@@H](C)N)CC1 [compound 40, N-((1R,4r)-4-((R)-3-aminobutanamido)cyclohexyl)-5-cyclopropyl-N-(2-methoxyethyl)isoxazole-3-carboxamide], the pIC50 rises from 4.72 to 5.01 (0.29 log units). The second is the more potent here.

C[C@@H](N)CC(=O)N[C@H]1CC[C@H](N(CCc2ccccc2)C(=O)c2cc(C3CC3)on2)CC1 [compound 41, N-((1R,4r)-4-((R)-3-aminobutanamido)cyclohexyl)-5-cyclopropyl-N-phenethylisoxazole-3-carboxamide] and C[C@@H](N)CC(=O)N[C@H]1CC[C@H](N(Cc2ccccc2)C(=O)c2cc(C3CC3)on2)CC1 [compound 45, N-((1R,4r)-4-((R)-3-aminobutanamido)cyclohexyl)-N-benzyl-5-cyclopropylisoxazole-3-carboxamide] are within 0.2 log units of each other in pIC50: 5.24 for the first, 5.09 for the second.

Compared with CN(C(=O)c1cc(C2CC2)on1)[C@H]1CC[C@H](NC(=O)CCN)CC1 [compound 60, N-((1r,4r)-4-(3-aminopropanamido)cyclohexyl)-5-cyclopropyl-N-methylisoxazole-3-carboxamide], CN(C(=O)c1cc(C2CC2)on1)[C@H]1CC[C@@H](NC(=O)CCN)CC1 [compound 59, N-((1s,4s)-4-(3-aminopropanamido)cyclohexyl)-5-cyclopropyl-N-methylisoxazole-3-carboxamide] is 0.84 log units lower in pIC50: 5.28 for the first, 4.44 for the second. The first is the more potent here.

Going from N[C@H]1C[C@H](C(=O)N[C@H]2CC[C@H](NC(=O)c3cc(C4CC4)on3)CC2)C1 [compound 22, N-((1R,4r)-4-((1r,3R)-3-aminocyclobutane-1-carboxamido)cyclohexyl)-5-cyclopropylisoxazole-3-carboxamide] to NC1CCC1C(=O)N[C@H]1CC[C@H](NC(=O)c2cc(C3CC3)on2)CC1 (stereo partly shown) [Cpd. No. 3, N-((1r,4r)-4-(2-amino-cyclobutane-1-carboxamido)cyclo-hexyl)-5-cyclopropylisoxazole-3-carboxamide], the pIC50 falls from 6.57 to 6.26 (0.31 log units).

Compared with NCCC(=O)N[C@H]1CC[C@H](N(Cc2ccccc2)C(=O)c2cc(C3CC3)on2)CC1 [compound 46, N-((1r,4r)-4-(3-aminopropanamido)cyclohexyl)-N-benzyl-5-cyclopropylisoxazole-3-carboxamide], COCCN(C(=O)c1cc(C2CC2)on1)[C@H]1CC[C@H](NC(=O)CCN)CC1 [compound 44, N-((1r,4r)-4-(3-aminopropanamido)cyclohexyl)-5-cyclopropyl-N-(2-methoxyethyl)isoxazole-3-carboxamide] is 0.57 log units lower in pIC50: 5.36 for the first, 4.79 for the second. The first is the more potent here.

Compared with CN1CCN(CCC(=O)N[C@H]2CC[C@H](NC(=O)c3cc(C4CC4)on3)CC2)CC1 [compound 10, 5-cyclopropyl-N-((1r,4r)-4-(3-(4-methylpiperazin-1-yl)propanamido)cyclohexyl)isoxazole-3-carboxamide], NCCC(=O)N[C@H]1CC[C@H](NC(=O)c2cc(C3CC3)on2)CC1 [compound 4, N-((1r,4r)-4-(3-aminopropanamido)cyclohexyl)-5-cyclopropylisoxazole-3-carboxamide] is 1.21 log units higher in pIC50: 5.11 for the first, 6.32 for the second.

Compared with CC(C)CNCCC(=O)N[C@H]1CC[C@H](NC(=O)c2cc(C3CC3)on2)CC1 [compound 19, 5-cyclopropyl-N-((1r,4r)-4-(3-(isobutylamino)propanamido)cyclohexyl)isoxazole-3-carboxamide], CC(C)CCN[C@H]1CC[C@H](NC(=O)c2cc(C3CC3)on2)CC1 [compound 25, 5-cyclopropyl-N-((1r,4r)-4-(isopentylamino)cyclohexyl)isoxazole-3-carboxamide] is 0.96 log units lower in pIC50: 6.04 for the first, 5.08 for the second.

Compared with N[C@H]1CC[C@H](C(=O)N[C@H]2CC[C@H](NC(=O)c3cc(C4CC4)on3)CC2)CC1 [compound 16, N-((1R,4r)-4-((1r,4R)-4-aminocyclohexane-1-carboxamido)cyclohexyl)-5-cyclopropylisoxazole-3-carboxamide], N[C@H]1CC[C@@H](C(=O)N[C@H]2CC[C@H](NC(=O)c3cc(C4CC4)on3)CC2)CC1 [compound 13, N-((1R,4r)-4-((1s,4S)-4-aminocyclohexane-1-carboxamido)cyclohexyl)-5-cyclopropylisoxazole-3-carboxamide] is 0.23 log units higher in pIC50: 6.22 for the first, 6.45 for the second. The second is the more potent here.
